Assay [1] has as its target T1, recombinant human JAK1 kinase domain protein (Residues 854-1154) (Homo sapiens, UniProt P23458).
T1 construct: human JAK1 kinase domain protein (Residues 854-1154); purchased Proteros Biostructures GmbH (Martinsried, Germany); host or cells: insect cells
The experiment in a line: JAK1 biochemical assay (LabChip mobility shift, Ki). Conditions: read-out: Biochem JAK1 Ki.

For assay [2], the system named is IL-13-stimulated STAT6 phosphorylation in human lung bronchial epithelial BEAS-2B cell line. As to the kind of experiment: P-STAT6 BEAS-2B + IL-13 cell assay. Conditions: BEAS2B cells, IL13 stimulation, read-out: Cellular JAK1 PSTAT6 BEAS2B + IL13. Type of assay: cell-based. A digest of the protocol:
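BEAS-2B cells grown 48 h at 37 °C, pre-treated 1 h with compound (10-point 1:2 dilution curve), then stimulated 15 min with human recombinant IL-13 (250 ng/mL stock). Lysate P-STAT6 (Tyr641) read by MSD sandwich ELISA with total-STAT6 capture; IC50 from four-parameter logistic fit of control-normalised data.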

In assay [3] the target is Recombinant human JAK2 kinase domain protein (Residues 812-1132) (Homo sapiens, UniProt O60674). The experiment in a line: JAK2 biochemical assay (LabChip mobility shift, Ki). Conditions: Biochem JAK2 Ki.

Each structure is given as a SMILES string. Like-named read-outs stand apart in the source and are kept apart here.

A word on the Ki: it is a measure of affinity in units of concentration, obtained from inhibition or displacement.

Chain of Recombinant human JAK2 kinase domain protein (Residues 812-1132) (O60674 812-1132): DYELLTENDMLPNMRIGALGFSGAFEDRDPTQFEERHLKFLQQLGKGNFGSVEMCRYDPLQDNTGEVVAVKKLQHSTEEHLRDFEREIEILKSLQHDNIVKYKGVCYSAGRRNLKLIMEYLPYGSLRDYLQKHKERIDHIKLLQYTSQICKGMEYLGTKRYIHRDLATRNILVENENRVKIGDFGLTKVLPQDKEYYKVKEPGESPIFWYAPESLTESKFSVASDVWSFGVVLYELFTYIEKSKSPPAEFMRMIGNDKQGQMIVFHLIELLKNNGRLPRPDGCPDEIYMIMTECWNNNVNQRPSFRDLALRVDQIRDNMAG
T1 sequence (P23458 854-1154): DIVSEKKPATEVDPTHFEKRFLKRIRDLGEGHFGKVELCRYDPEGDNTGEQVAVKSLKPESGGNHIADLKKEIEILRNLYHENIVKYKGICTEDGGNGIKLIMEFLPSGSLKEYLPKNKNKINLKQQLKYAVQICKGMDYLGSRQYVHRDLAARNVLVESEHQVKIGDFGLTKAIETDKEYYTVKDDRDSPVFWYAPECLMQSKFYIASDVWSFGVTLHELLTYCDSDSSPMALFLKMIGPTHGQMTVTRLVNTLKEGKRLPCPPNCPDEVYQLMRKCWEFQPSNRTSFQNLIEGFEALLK

For the compound `Cn1cc(NC(=O)c2cnn3cccnc23)c(-c2cc(Oc3cnn(C4CCC4O)c3)ccc2OC(F)F)n1` (stereo not drawn) [Example 135, N-[3-[2-(difluoromethoxy)-5-[1-(2-hydroxycyc1obutyl)pyrazol-4-yl]oxy-phenyl]-1-methyl-pyrazol-4-yl]pyrazolo[1,5-a]pyrimidine-3-carboxamide], the Ki in assay [1] was 0.25 nM; in assay [3], 0.16 nM. The IC50 in assay [2] amounted to 15 nM.
As for `N#CCc1ccc(Oc2ccc(OC(F)F)c(-c3n[nH]cc3NC(=O)c3cnn4cccnc34)c2)cc1` [Example 8, N-[3-[5-[4-(cyanomethyl)phenoxy]-2-(difluoromethoxy)phenyl]-1H-pyrazol-4-yl]pyrazolo[1,5-a]pyrimidine-3-carboxamide], the Ki in assay [1] amounted to 0.18 nM; in assay [3], 0.14 nM. Also, in assay [2] (Homo sapiens, BEAS-2B), the IC50 was 7.6 nM.
Turning to `CN(C)C(=O)c1ccc(Oc2ccc(OC(F)F)c(-c3nn(C4COC4)cc3NC(=O)c3cnn4cccnc34)c2)cc1` [Example 142, 3-[2-(difluoromethoxy)-5-[4-(dimethylcarbamoyl)phenoxy]phenyl 1-1-(oxetan-3-yl)pyrazol-4-yl]pyrazolo[1,5-a]pyrimidine-3-carboxamide], the Ki in assay [1] stood at 0.64 nM; in assay [3] it was 0.39 nM. The IC50 in assay [2] (Homo sapiens, BEAS-2B) came out at 22 nM.
For `Cn1cc(NC(=O)c2cnn3cccnc23)c(-c2cc(Oc3cccc(C4(O)CNC4)c3)ccc2OC(F)F)n1` [Example 53], the Ki turned out to be 0.32 nM in assay [1] and 0.27 nM in assay [3]. For the same compound, the IC50 in assay [2] (Homo sapiens, BEAS-2B) is 210 nM.
For `CN(C)C1CCCN(C(=O)c2cccc(Oc3ccc(OC(F)F)c(-c4nn(C)cc4NC(=O)c4cnn5cccnc45)c3)c2)C1` (racemic) [Example 213, N-[3-[2-(difluoromethoxy)-5-[3-[rac-(3R)-3-(dimethylamino)piperidine-1-carbonyl]phenoxy]phenyl]-1-methyl-pyrazol-4-yl]pyrazolo[1,5-a]pyrimidine-3-carboxamide], the values for the inhibitory constant (Ki) in assay [1] and in assay [3] were 1.2 nM and 0.89 nM, respectively. Besides, the IC50 in assay [2] (Homo sapiens, BEAS-2B) was 49 nM.
Turning to `CNC(=O)c1ccc(Oc2ccc(OC(F)F)c(-c3nn(C)cc3NC(=O)c3cnn4cccnc34)c2)cc1` [Example 131, N-[3-[2-(difluoromethoxy)-5-[4-(methylcarbamoyl)phenoxy]phenyl]-1-methyl-pyrazol-4-yl]pyrazolo[1,5-a]pyrimidine-3-carboxamide], the Ki in assay [1] came out at 0.41 nM; in assay [3], 0.24 nM. In assay [2] (Homo sapiens, BEAS-2B), the IC50 stood at 23 nM.
`Cc1ccc(Oc2ccc(OC(F)F)c(-c3n[nH]cc3NC(=O)c3cnn4cccnc34)c2)cc1` [Example 25, N-[3-[2-(difluoromethoxy)-5-(4-methylphenoxy)phenyl]-1H-pyrazol-4-yl]pyrazolo[1,5-a]pyrimidine-3-carboxamide]: the Ki in assay [1] came to 0.39 nM; in assay [3], 0.14 nM. Moreover, the IC50 in assay [2] (Homo sapiens, BEAS-2B) was found to be 11 nM.
Turning to `CNCCn1cc(NC(=O)c2cnn3cccnc23)c(-c2cc(Oc3ccccc3)ccc2OC(F)F)n1` [Example 26, N-[3-[2-(difluoromethoxy)-5-phenoxy-phenyl]-1-[2 (methylamino)ethyl]pyrazol-4-yl]pyrazolo[1,5-a]pyrimidine-3-carboxamide], the figures for the Ki in assay [1] and in assay [3] were 0.25 nM and 0.41 nM, respectively. In addition, the IC50 in assay [2] (Homo sapiens, BEAS-2B) came to 12 nM.
Taken in the same sequence, the figures for `Cn1cc(NC(=O)c2cnn3cccnc23)c(-c2cc(Oc3ccc(CN4CCC[C@@H](O)C4)cc3)ccc2OC(F)F)n1` (racemic) [Example 163, N-[3-[2-(difluoromethoxy)-5-[4-[[rac-(3R)-3-hydroxy-1-piperidyl]methyl]phenoxy]phenyl]-1-methyl-pyrazol-4-yl]pyrazolo[1,5-a]pyrimidine-3-carboxamide] were 1.5 nM, 0.37 nM and 21 nM.
Taken in the same sequence, the figures for `Cn1cc(NC(=O)c2cnn3cccnc23)c(-c2cc(Oc3ccc(CN4CCC4CO)cc3)ccc2OC(F)F)n1` (racemic) [Example 168, N-[3-[2-(difluoromethoxy)-5-[4-[[rac-(2S)-2-(hydroxymethyl)azetidin-1-yl]methyl]phenoxy]phenyl]-1-methyl-pyrazol-4-yl]pyrazolo[1,5-a]pyrimidine-3-carboxamide] were 1.3 nM, 0.58 nM and 30 nM.
Taken in the same sequence, the figures for `NCc1cc(Oc2ccc(OC(F)F)c(-c3n[nH]cc3NC(=O)c3cnn4cccnc34)c2)ccc1C(F)(F)F` [Example 52, N-[3-[5-[3-(aminomethyl)-4-(trifluoromethyl)phenoxy]-2-(difluoromethoxy)phenyl]-1H-pyrazol-4-yl]pyrazolo[1,5-a]pyrimidine-3-carboxamide] were 3 nM, 2.3 nM and 91 nM.
With `O=C(Nc1cn(C2COC2)nc1-c1cc(Oc2ccc3c(c2)CNCC3)ccc1OC(F)F)c1cnn2cccnc12` [Example 157, N-[3-[2-(difluoromethoxy)-5-(1,2,3,4-tetrahydroisoquinolin-7-yloxy)phenyl]-1-(oxetan-3-yl)pyrazol-4-yl]pyrazolo[1,5-a]pyrimidine-3-carboxamide], the Ki in assay [1] was 0.31 nM; in assay [3], 0.28 nM. In assay [2] (Homo sapiens, BEAS-2B), the IC50 stood at 28 nM.
Consider `CN(CC(=O)N(C)C)Cc1cccc(Oc2ccc(OC(F)F)c(-c3nn(C)cc3NC(=O)c3cnn4cccnc34)c2)c1` [Example 60], for which the figures for the inhibition constant Ki in assay [1] and in assay [3] were 0.81 nM and 0.75 nM, respectively. Further, the IC50 in assay [2] (Homo sapiens, BEAS-2B) amounted to 35 nM.
For the compound `Cn1cc(NC(=O)c2cnn3cccnc23)c(-c2cc(Oc3cnn(C4CNCC4O)c3)ccc2OC(F)F)n1` (stereo not drawn) [Example 176, N-[3-[2-(difluoromethoxy)-5-[1-(4-hydroxypyrrolidin-3-yl)pyrazol-4-yl]oxy-phenyl]-1-methyl-pyrazol-4-yl]pyrazolo[1,5-a]pyrimidine-3-carboxamide], the results for the Ki in assay [1] and in assay [3] were 0.25 nM and 0.21 nM, respectively. Further, the IC50 in assay [2] (Homo sapiens, BEAS-2B) was determined as 210 nM.
As to `Cn1cc(NC(=O)c2cnn3cccnc23)c(-c2cc(Oc3cccc(C4CNCCO4)c3)ccc2OC(F)F)n1` (racemic) [Example 38, N-[3-[2-(difluoromethoxy)-5-[3-[rac-(2R)-morpholin-2-yl]phenoxy]phenyl]-1-methyl-pyrazol-4-yl]pyrazolo[1,5-a]pyrimidine-3-carboxamide], the results for the Ki in assay [1] and in assay [3] were 0.52 nM and 0.38 nM, respectively. Also, the IC50 in assay [2] (Homo sapiens, BEAS-2B) is 22 nM.
Turning to `Cn1cc(NC(=O)c2cnn3cccnc23)c(-c2cc(Oc3ccc(C(N)=O)cc3)ccc2OC(F)F)n1` [Example 136, N-[3-[5-(4-carbamoylphenoxy)-2-(difluoromethoxy)phenyl]-1-methyl-pyrazol-4-yl]pyrazolo[1,5-a]pyrimidine-3-carboxamide], the figures for the Ki in assay [1] and in assay [3] were 0.5 nM and 0.23 nM, respectively. The IC50 in assay [2] (Homo sapiens, BEAS-2B) worked out at 46 nM.
`CN1CCCC(O)(Cn2cc(Oc3ccc(OC(F)F)c(-c4nn(C)cc4NC(=O)c4cnn5cccnc45)c3)cn2)CC1` (stereo not drawn) [Example 196, N-[3-[2-(difluoromethoxy)-5-[1-[(4-hydroxy-1-methyl-azepan-4-yl)methyl]pyrazol-4-yl]oxy-phenyl]-1-methyl-pyrazol-4-yl]pyrazolo[1,5-a]pyrimidine-3-carboxamide]: the figures for the inhibition constant (Ki) in assay [1] and in assay [3] were 0.8 nM and 0.52 nM, respectively. The IC50 in assay [2] (Homo sapiens, BEAS-2B) was determined as 120 nM.
Take `CN1CCC[C@H]1Cn1cc(NC(=O)c2cnn3cccnc23)c(-c2cc(Oc3ccccc3)ccc2OC(F)F)n1` (racemic) [Example 31, N-[3-[2-(difluoromethoxy)-5-phenoxy-phenyl]-1-[[rac-(2R)-1-methylpyrrolidin-2-yl]methyl]pyrazol-4-yl]pyrazolo[1,5-a]pyrimidine-3-carboxamide]: the Ki was found to be 0.37 nM in assay [1] and 0.86 nM in assay [3]. For the same compound, in assay [2] (Homo sapiens, BEAS-2B), the IC50 is 9.2 nM.
As for `Cn1cc(NC(=O)c2cnn3cccnc23)c(-c2cc(Oc3ccc(CN4CCCC4CO)cc3)ccc2OC(F)F)n1` (racemic) [Example 165, N-[3-[2-(difluoromethoxy)-5-[4-[[rac-(2S)-2-(hydroxymethyl)pyrrolidin-1-yl]methyl]phenoxy]phenyl]-1-methyl-pyrazol-4-yl]pyrazolo[1,5-a]pyrimidine-3-carboxamide], the inhibition constant (Ki) in assay [1] was determined as 1.7 nM; in assay [3], 0.56 nM. Besides, the IC50 in assay [2] (Homo sapiens, BEAS-2B) was 31 nM.
Turning to `CCn1cc(NC(=O)c2cnn3cccnc23)c(-c2cc(Oc3cccc(C4(O)CNC4)c3)ccc2OC(F)F)n1` [Example 112, N-[3-[2-(difluoromethoxy)-5-[3-(3-hydroxyazetidin-3-yl)phenoxy]phenyl]-1-ethyl-pyrazol-4-yl]pyrazolo[1,5-a]pyrimidine-3-carboxamide], the inhibition constant (Ki) is 0.38 nM in assay [1] and 0.46 nM in assay [3]. The IC50 in assay [2] (Homo sapiens, BEAS-2B) turned out to be 110 nM.
`Cn1cc(NC(=O)c2cnn3cccnc23)c(-c2cc(Oc3cnn(CC(C)(C)O)c3)ccc2OC(F)F)n1` [Example 124, N-[3-[2-(difluoromethoxy)-5-[1-(2-hydroxy-2-methyl-propyl)pyrazol-4-yl]oxy-phenyl]-1-methyl-pyrazol-4-yl]pyrazolo[1,5-a]pyrimidine-3-carboxamide]: the Ki in assay [1] stood at 0.39 nM; in assay [3], 0.21 nM. The IC50 in assay [2] (Homo sapiens, BEAS-2B) was determined as 29 nM.
`Cn1cc(NC(=O)c2cnn3cccnc23)c(-c2cc(Oc3ccc(CC(=O)N4CCC4)cc3)ccc2OC(F)F)n1` [Example 149, N-[3-[5-[4-[2-(azetidin-1-yl)-2-oxo-ethyl]phenoxy]-2-(difluoromethoxy)phenyl]-1-methyl-pyrazol-4-yl]pyrazolo[1,5-a]pyrimidine-3-carboxamide]: the Ki in assay [1] stood at 0.28 nM; in assay [3] it was 0.17 nM. Further, in assay [2] (Homo sapiens, BEAS-2B), the IC50 was determined as 20 nM.

The record behind these values is US12528812B2 (Genentech, Inc., priority 2020, dated 2026).
